For 16 compounds, IC50 results are on record in patent US20250019387A1 (Frontier Medicines Corporation, priority 0001, published 2025).

As usually defined, the IC50 is the concentration needed to halve the response being measured.

Each structure is given as a SMILES string.

Sequence of KRAS G12C and cRAF (Ras-binding domain) interaction (P01116 other isoform, or with tags, fused parts or gaps G12C/C51S/C80L/C118S): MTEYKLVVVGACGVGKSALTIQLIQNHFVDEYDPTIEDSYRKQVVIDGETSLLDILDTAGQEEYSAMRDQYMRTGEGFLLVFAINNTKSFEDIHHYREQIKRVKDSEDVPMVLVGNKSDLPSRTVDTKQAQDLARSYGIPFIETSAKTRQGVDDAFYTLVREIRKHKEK

This experiment has as its target KRAS G12C and cRAF (Ras-binding domain) interaction (Homo sapiens (Human), UniProt P01116, C118S/C51S/C80L/G12C). In words: Inhibition of KRAS G12C and cRAF binding (AlphaScreen). The following applies: GMPPNP-loaded KRAS G12C, 19-20 hours incubation with compound; read-out: IC50 (Inhibition of KRAS G12C and cRAF Binding). Summed up: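 Compounds (DMSO) preincubated 19-20 h at room temperature, then RBD with streptavidin donor and glutathione acceptor beads added in 25 mM Hepes pH 7.4, 150 mM NaCl, 5 mM MgCl2, 0.01% Triton X-100, 2% DMSO for 60-90 min. Emission 570 nm (excitation 680 nm); IC50 by 4-parameter fit. Counter-screen used biotin-AviTag-GST instead of RBD.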
On the technique in general: In Alpha technology, singlet oxygen from a donor bead excites a nearby acceptor bead.
On to `COC(=O)/C=C/C(=O)N1CC[C@@H](N(C)c2nc(OC[C@@H]3CCCN3C)nc3c2CCN(c2cccc4cccc(Cl)c24)C3)C1` [Example 10, methyl(E)-4-((R)-3-((7-(8-chloronaphthalen-1-yl)-2-(((S)-1-methylpyrrolidin-2-yl)methoxy)-5,6,7,8-tetrahydropyrido[3,4-d]pyrimidin-4-yl)(methyl)amino)pyrrolidin-1-yl)-4-oxobut-2-enoate], for which the IC50 is 10 to 100 nM.

As to `CC(C)OC(=O)/C=C/C(=O)N1CC[C@@H](N(C)c2nc(OC[C@@H]3CCCN3C)nc3c2CCN(c2cccc4cccc(Cl)c24)C3)C1` [Example 11, isopropyl(E)-4-((R)-3-((7-(8-chloronaphthalen-1-yl)-2-(((S)-1-methylpyrrolidin-2-yl)methoxy)-5,6,7,8-tetrahydropyrido[3,4-d]pyrimidin-4-yl)(methyl)amino)pyrrolidin-1-yl)-4-oxobut-2-enoate], the IC50 fell in the range of 10 to 100 nM.

On to `CCN(CCNC(=O)/C=C/C(=O)OC)c1nc(OC[C@@H]2CCCN2C)nc2c1CCN(c1cccc3cccc(Cl)c13)C2` [Example 12, methyl(S,E)-4-((2-((7-(8-chloronaphthalen-1-yl)-2-((1-methylpyrrolidin-2-yl)methoxy)-5,6,7,8-tetrahydropyrido[3,4-d]pyrimidin-4-yl)(ethyl)amino)ethyl)amino)-4-oxobut-2-enoate], for which the IC50 is above 500 nM.

Consider `COC(=O)/C=C/C(=O)NCCN(C)c1nc(OCC23CCCN2CCC3)nc2c1CCN(c1cccc3cccc(Cl)c13)C2` [Example 13, Methyl(E)-4-((2-((7-(8-chloronaphthalen-1-yl)-2-((tetrahydro-1H-pyrrolizin-7a(5H)-yl)methoxy)-5,6,7,8-tetrahydropyrido[3,4-d]pyrimidin-4-yl)(methyl)amino)ethyl)amino)-4-oxobut-2-enoate], for which the IC50 is 10 to 100 nM.

With `COC(=O)/C=C/C(=O)NC1CCN(c2nc(OC[C@@H]3CCCN3C)nc3c2CCN(c2cccc4cccc(Cl)c24)C3)C1` (stereo partly drawn) [Example 14, methyl(E)-4-((1-(7-(8-chloronaphthalen-1-yl)-2-(((S)-1-methylpyrrolidin-2-yl)methoxy)-5,6,7,8-tetrahydropyrido[3,4-d]pyrimidin-4-yl)pyrrolidin-3-yl)amino)-4-oxobut-2-enoate], the IC50 was above 500 nM.

In the case of `CN1CCC[C@H]1COc1nc2c(c(N(C)[C@H]3CCN(C(=O)/C=C/S(C)(=O)=O)C3)n1)CCN(c1cccc3cccc(Cl)c13)C2` [Example 15, (E)-1-((S)-3-((7-(8-chloronaphthalen-1-yl)-2-(((S)-1-methylpyrrolidin-2-yl)methoxy)-5,6,7,8-tetrahydropyrido[3,4-d]pyrimidin-4-yl)(methyl)amino)pyrrolidin-1-yl)-3-(methylsulfonyl)prop-2-en-1-one], the IC50 was below 10 nM.

For `COC(=O)/C=C/C(=O)N1CC(CN(C)c2nc(OC[C@@H]3CCCN3C)nc3c2CCN(c2cccc4cccc(Cl)c24)C3)C1` [Example 16, methyl(S,E)-4-(3-(((7-(8-chloronaphthalen-1-yl)-2-((1-methylpyrrolidin-2-yl)methoxy)-5,6,7,8-tetrahydropyrido[3,4-d]pyrimidin-4-yl)(methyl)amino)methyl)azetidin-1-yl)-4-oxobut-2-enoate], the IC50 was 10 to 100 nM.

Consider `COC(=O)/C=C/C(=O)N1C[C@H](N(C)c2nc(OC[C@@H]3CCCN3C)nc3c2CCN(c2cccc4cccc(Cl)c24)C3)C[C@H]1C` [Example 17, methyl(E)-4-((2R,4R)-4-((7-(8-chloronaphthalen-1-yl)-2-(((S)-1-methylpyrrolidin-2-yl)methoxy)-5,6,7,8-tetrahydropyrido[3,4-d]pyrimidin-4-yl)(methyl)amino)-2-methylpyrrolidin-1-yl)-4-oxobut-2-enoate], for which the IC50 was 10 to 100 nM.

On to `CC(C)OC(=O)/C=C/C(=O)N1CC[C@@H](N(C)c2nc(OCC34CCCN3CCC4)nc3c2CCN(c2cccc4cccc(Cl)c24)C3)C1` [Example 18, isopropyl(R,E)-4-(3-((7-(8-chloronaphthalen-1-yl)-2-((tetrahydro-1H-pyrrolizin-7a(5H)-yl)methoxy)-5,6,7,8-tetrahydropyrido[3,4-d]pyrimidin-4-yl)(methyl)amino)pyrrolidin-1-yl)-4-oxobut-2-enoate], for which the IC50 was below 10 nM.

Consider `C=CC(=O)N1CC[C@@H](N(C)c2nc(OCC34CCCN3CCC4)nc3c2CCN(c2cccc4cccc(Cl)c24)C3)C1` [Example 19, (R)-1-(3-((7-(8-chloronaphthalen-1-yl)-2-((tetrahydro-1H-pyrrolizin-7a(5H)-yl)methoxy)-5,6,7,8-tetrahydropyrido[3,4-d]pyrimidin-4-yl)(methyl)amino)pyrrolidin-1-yl)prop-2-en-1-one], for which the IC50 is 10 to 100 nM.

`COC(=O)/C=C/C(=O)N1C[C@H](N(C)c2nc(OCC34CCCN3CCC4)nc3c2CCN(c2cccc4cccc(Cl)c24)C3)C[C@@H]1C` [Example 20, methyl(E)-4-((2S,4R)-4-((7-(8-chloronaphthalen-1-yl)-2-((tetrahydro-1H-pyrrolizin-7a(5H)-yl)methoxy)-5,6,7,8-tetrahydropyrido[3,4-d]pyrimidin-4-yl)(methyl)amino)-2-methylpyrrolidin-1-yl)-4-oxobut-2-enoate]: the IC50 was 10 to 100 nM.

Consider `CN(CCNC(=O)/C=C/C(=O)O)c1nc(OC[C@@H]2CCCN2C)nc2c1CCN(c1cccc3cccc(Cl)c13)C2` [Example 21, (S,E)-4-((2-((7-(8-chloronaphthalen-1-yl)-2-((1-methylpyrrolidin-2-yl)methoxy)-5,6,7,8-tetrahydropyrido[3,4-d]pyrimidin-4-yl)(methyl)amino)ethyl)amino)-4-oxobut-2-enoic acid], for which the IC50 was above 500 nM.

With `COC(=O)/C=C/C(=O)NCCN(C)c1nc(OC[C@@H]2CCCN2C)nc2c1CCN(c1cccc3cccc(Cl)c13)C2` [Example 22, methyl(S,E)-4-((2-((7-(8-chloronaphthalen-1-yl)-2-((1-methylpyrrolidin-2-yl)methoxy)-5,6,7,8-tetrahydropyrido[3,4-d]pyrimidin-4-yl)(methyl)amino)ethyl)amino)-4-oxobut-2-enoate], the IC50 was 100 to 500 nM.

Turning to `CN(CCNC(=O)/C=C/S(C)(=O)=O)c1nc(OC[C@@H]2CCCN2C)nc2c1CCN(c1cccc3cccc(Cl)c13)C2` [Example 23, (S,E)-N-(2-((7-(8-chloronaphthalen-1-yl)-2-((1-methylpyrrolidin-2-yl)methoxy)-5,6,7,8-tetrahydropyrido[3,4-d]pyrimidin-4-yl)(methyl)amino)ethyl)-3-(methylsulfonyl)acrylamide], the IC50 lay within 10 to 100 nM.

As for `COC(=O)/C=C/C(=O)N1CCC(N(C)c2nc(OC[C@@H]3CCCN3C)nc3c(F)c(-c4cccc5cccc(Cl)c45)ncc23)C1` (stereo partly drawn) [Example 24, methyl(E)-4-(3-((7-(8-chloronaphthalen-1-yl)-8-fluoro-2-(((S)-1-methylpyrrolidin-2-yl)methoxy)pyrido[4,3-d]pyrimidin-4-yl)(methyl)amino)pyrrolidin-1-yl)-4-oxobut-2-enoate], the IC50 is below 10 nM.

Turning to `COC(=O)/C=C/C(=O)N1CC(CN(C)c2nc(OCC34CCCN3CCC4)nc3c(F)c(-c4cccc5cccc(Cl)c45)ncc23)C1` [Example 25, methyl(E)-4-(3-(((7-(8-chloronaphthalen-1-yl)-8-fluoro-2-((tetrahydro-1H-pyrrolizin-7a(5H)-yl)methoxy)pyrido[4,3-d]pyrimidin-4-yl)(methyl)amino)methyl)azetidin-1-yl)-4-oxobut-2-enoate], the IC50 is below 10 nM.
